# Read-outs that look alike come from different tables or passages of the source.
# Assays:
# [1] = target: Hsp90CT (C-terminal domain of Hsp90, amino acids 531–732) (Homo sapiens, UniProt P07900); experiment: SPR binding to C-terminal domain of Hsp90
# [2] = tested on: Her2, Akt, Raf-1, Hsp70, Hsp90 in MCF7 cells; experiment: Western blot of Hsp90 client proteins and heat shock proteins, MCF7; type: cell-based; conditions: MCF7, 36 h
# [3] = tested on: Hsp90, Hsp70 and Cdc37 with HRI/K199R; type: biochemical; conditions: low ionic strength wash
# [4] = target: Hsp90NT (N-terminal domain of Hsp90α, amino acids 1–241) (Homo sapiens, UniProt P07900); experiment: SPR binding to N-terminal domain of Hsp90
# [5] = tested on: Her2, Akt, Raf-1, Hsp70, Hsp90 in Sk-Br3 cells; experiment: Western blot of Hsp90 client proteins and heat shock proteins, SkBr3; type: cell-based; conditions: Sk-Br3, 36 h
# [6] = tested on: heme-regulated eIF2α kinase (HRI); experiment: Hsp90-dependent HRI maturation/activation in heme-deficient reticulocyte lysate; conditions: 45 min
# native luciferase = native luciferase (Photinus pyralis, UniProt P08659); experiment: Counter-screen against native luciferase; type: biochemical, firefly
# Sequence of native luciferase (P08659 whole entry): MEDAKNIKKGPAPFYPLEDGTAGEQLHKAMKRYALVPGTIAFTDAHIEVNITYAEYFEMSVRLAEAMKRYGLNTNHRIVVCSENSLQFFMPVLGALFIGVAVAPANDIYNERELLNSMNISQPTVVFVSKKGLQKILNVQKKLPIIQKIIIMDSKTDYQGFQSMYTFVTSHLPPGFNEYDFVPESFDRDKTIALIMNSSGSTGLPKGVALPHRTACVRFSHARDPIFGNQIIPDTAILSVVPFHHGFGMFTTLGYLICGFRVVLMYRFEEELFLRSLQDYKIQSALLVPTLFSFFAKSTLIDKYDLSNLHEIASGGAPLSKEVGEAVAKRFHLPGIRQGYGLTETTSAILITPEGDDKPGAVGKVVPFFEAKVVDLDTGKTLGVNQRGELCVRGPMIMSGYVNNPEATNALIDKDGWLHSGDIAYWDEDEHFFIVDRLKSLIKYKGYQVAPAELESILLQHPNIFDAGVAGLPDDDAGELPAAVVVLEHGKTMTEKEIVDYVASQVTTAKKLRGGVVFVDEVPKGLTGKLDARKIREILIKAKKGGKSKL
# [7] = target: full length Hsp90 (human Hsp90β) (Homo sapiens, UniProt P08238); experiment: SPR binding to full length Hsp90; conditions: full length Hsp90, 25 °C
# Sequence of full length Hsp90 (human Hsp90β) (P08238 whole entry): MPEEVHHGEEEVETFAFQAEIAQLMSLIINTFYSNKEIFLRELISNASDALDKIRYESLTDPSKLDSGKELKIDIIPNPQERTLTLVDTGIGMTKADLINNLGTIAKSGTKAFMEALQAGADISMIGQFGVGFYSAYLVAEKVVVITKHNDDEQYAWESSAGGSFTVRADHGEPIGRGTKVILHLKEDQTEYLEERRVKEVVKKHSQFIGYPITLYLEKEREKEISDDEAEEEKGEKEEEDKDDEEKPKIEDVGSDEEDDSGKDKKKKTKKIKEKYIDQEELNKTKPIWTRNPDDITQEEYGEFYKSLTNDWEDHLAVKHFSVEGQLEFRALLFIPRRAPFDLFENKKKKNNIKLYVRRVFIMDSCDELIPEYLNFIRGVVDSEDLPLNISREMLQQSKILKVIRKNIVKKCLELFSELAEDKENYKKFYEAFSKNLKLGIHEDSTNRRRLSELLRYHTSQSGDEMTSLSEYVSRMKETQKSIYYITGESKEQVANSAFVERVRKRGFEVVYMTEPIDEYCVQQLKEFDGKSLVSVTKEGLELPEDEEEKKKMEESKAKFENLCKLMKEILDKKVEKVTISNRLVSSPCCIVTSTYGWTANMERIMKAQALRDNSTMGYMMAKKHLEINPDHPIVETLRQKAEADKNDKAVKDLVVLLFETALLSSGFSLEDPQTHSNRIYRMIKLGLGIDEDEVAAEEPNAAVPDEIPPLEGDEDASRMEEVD
# [8] = tested on: heme-regulated eIF2α kinase (HRI); experiment: Stability of [35S]HRI in reticulocyte lysate; type: biochemical; conditions: 45 min, heme-deficient lysate
smiles,measurement,setting,value
"CC(C)=CCC[C@]1(C)C=Cc2c(O)c3c(c(CC=C(C)C)c2O1)O[C@]12C(=C[C@@H]4C[C@H]1C(C)(C)O[C@@]2(C/C=C(/C)C(=O)O)C4=O)C3=O [Compound 1, (−)-gambogic acid]",KD,[1],no binding
same,ka,[1],no binding
same,kd,[1],no binding
same,"depletion of Hsp90-dependent proteins Her2, Akt, Raf-1",[2],"deplete MCF7 and Sk-Br3 cells of Her2, Akt and Raf-1 in a concentration dependent fashion"
same,induction of Hsp90 and Hsp70 expression,[2],induced Hsp90 and Hsp70 expression
same,"effect on binding of Hsp90, Hsp70, Cdc37 to HRI/K199R",[3]; 50 µM,"disrupted the binding of Hsp90, Hsp70, and Cdc37 to HRI"
same,kd,[4]; 25 °C,0.01122(7) S^−1
same,kd,[4]; +20 µM GA in analyte buffer,0.0114(7) S^−1
same,"depletion of Hsp90-dependent proteins Her2, Akt, Raf-1",[5],"deplete MCF7 and Sk-Br3 cells of Her2, Akt and Raf-1 in a concentration dependent fashion"
same,induction of Hsp90 and Hsp70 expression,[5],induced Hsp90 and Hsp70 expression
same,effect on HRI maturation/activation,[6]; 50 µM,inhibited the maturation/ activation of HRI
same,direct effect on the activity of native luciferase,native luciferase,Neither celastrol nor 1 had any direct effect
same,kd,[7],0.0113(4) S^−1
"CC1=C(O)C(=O)C=C2C1=CC=C1[C@@]2(C)CC[C@@]2(C)[C@@H]3C[C@](C)(C(=O)O)CC[C@]3(C)CC[C@]12C [Compound 2, celastrol]","effect on binding of Hsp90, Hsp70, Cdc37 to HRI/K199R",[3]; 100 µM,"disrupted the binding of Hsp90, Hsp70, and Cdc37 to HRI"
same,effect on HRI maturation/activation,[6]; 100 µM,inhibited the maturation/ activation of HRI
same,direct effect on the activity of native luciferase,native luciferase,Neither celastrol nor 1 had any direct effect
"CO[C@@H]1[C@@H](OC(N)=O)[C@@H](O)[C@H](Oc2ccc3c(O)c(NC(=O)c4ccc(O)c(CC=C(C)C)c4)c(=O)oc3c2C)OC1(C)C [Compound 4, novobiocin]","effect on binding of Hsp90, Hsp70, Cdc37 to HRI/K199R",[3]; 4.0 mM,"disrupted the interaction of Hsp90, Hsp70 and Cdc37 with HRI/K199R"
same,effect on HRI maturation/activation,[6]; 4.0 mM,also inhibited the maturation/ activation of HRI
"COC1=C2C[C@@H](C)C[C@H](OC)[C@H](O)[C@@H](C)/C=C(\C)[C@H](OC(N)=O)[C@@H](OC)/C=C\C=C(/C)C(=O)NC(=CC1=O)C2=O [Compound 3, geldanamycin]",loss of [35S]HRI compared to the DMSO control,[8]; 80 µM,0%
same,effect on HRI maturation/activation,[6]; 80 µM,inhibited the maturation/ activation of HRI
"[Na+].[Na+].[O]=[Mo](=[O])([O-])[O-] [molybdate, sodium molybdate]","effect on binding of Hsp90, Hsp70, Cdc37 to HRI/K199R",[3]; 20 mM,"stabilized the binding of Hsp90 and Cdc37 to HRI/K199R, while not affecting the interaction of Hsp70 with HRI/K199R"
same,loss of [35S]HRI compared to the DMSO control,[8]; 20 mM,10%
same,effect on HRI maturation/activation,[6]; 20 mM,inhibited the maturation/ activation of HRI
"CO[C@H]1[C@H](OC(=O)c2ccc(C)[nH]2)[C@H](O)[C@@H](Oc2ccc3c(O)c(NC(=O)c4c[nH]c(C(=O)Nc5c(O)c6ccc(O[C@H]7OC(C)(C)[C@@H](OC)[C@H](OC(=O)c8ccc(C)[nH]8)[C@@H]7O)c(C)c6oc5=O)c4C)c(=O)oc3c2C)OC1(C)C [Compound 5, coumermycin A1]","effect on binding of Hsp90, Hsp70, Cdc37 to HRI/K199R",[3]; 400 µM,"disrupted the interaction of Hsp90, Hsp70 and Cdc37 with HRI/K199R"
same,effect on HRI maturation/activation,[6]; 400 µM,also inhibited the maturation/ activation of HRI

# — publication PMC3103600 (Journal of natural products, 2011)
